Results from patent publication US9738634B2, “Heterocyclic amide compound and herbicide” (SYNGENTA PARTICIPATIONS AG, priority 2013, dated 2017).

Columns and labels:
Format in all cases: in vivo
Details in all cases: treatment dosage 320 g/ha
black-grass [1] = test: Test Example 4: weedkilling efficacy by foliar treatment; H: black-grass
Method in brief: (§1)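 Seeds are spot-sown into sterilized diluvial soil and covered with about 1.5 cm of soil. After 14 days' greenhouse growth at 25 to 30° C, plants are sprayed on stems and leaves with diluted emulsion at the stated g/ha rate, then scored at 3 weeks.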

directly sown rice [2] = test: Test Example 3: soil treatment, effect on crop; b: directly sown rice
Method in brief: (§2)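 Crop and weed responses were judged three weeks after a uniform surface spray of the water-diluted emulsion at the given g/ha rate. Seeds sat beneath about 1.5 cm of sterilized diluvial soil, and boxes stood in a greenhouse at 25 to 30° C.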

common wind-grass [3] = test: Test Example 4: weedkilling efficacy by foliar treatment; J: common wind-grass
Method in brief: as §1

soybean [4] = test: Test Example 3: soil treatment, effect on crop; d: soybean
Method in brief: as §2

catchweed = test: Test Example 4: weedkilling efficacy by foliar treatment; O: catchweed
Method in brief: as §1

soybean [5] = test: Test Example 4: foliar treatment, effect on crop; d: soybean
Method in brief: as §1

wild oat [6] = test: Test Example 3: weedkilling efficacy through soil treatment; G: wild oat
Method in brief: as §2

rapeseed [7] = test: Test Example 3: soil treatment, effect on crop; g: rapeseed
Method in brief: as §2

green foxtail [8] = test: Test Example 4: weedkilling efficacy by foliar treatment; E: green foxtail
Method in brief: as §1

directly sown rice [9] = test: Test Example 4: foliar treatment, effect on crop; b: directly sown rice
Method in brief: as §1

oval-leafed pondweed [10] = test: Test Example 2: weedkilling efficacy, growth period weed treatment in the submerged state; C: oval-leafed pondweed
Method in brief: (§3)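 Barnyard grass, bulrush and oval-leafed pondweed sown in alluvial soil under 4 cm flooding, greenhouse 25 to 30° C. At 1-2 leaf stage, water-diluted emulsion applied to the water surface at stated g/ha dosages; effects scored 3 weeks later.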

rapeseed [11] = test: Test Example 4: foliar treatment, effect on crop; g: rapeseed
Method in brief: as §1

green foxtail [12] = test: Test Example 3: weedkilling efficacy through soil treatment; E: green foxtail
Method in brief: as §2

beet [13] = test: Test Example 3: soil treatment, effect on crop; f: beet
Method in brief: as §2

oval-leafed pondweed [14] = test: Test Example 1: weedkilling efficacy, preemergent weed treatment in the submerged state; C: oval-leafed pondweed
Method in brief: (§4)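 Visual scores against set criteria were taken 3 weeks after treatment. Compounds, as diluted emulsions at specified g/ha, went onto the water surface of 4 cm-flooded alluvial soil pots on the day weeds were sown and 2.5-leaf rice was transplanted; greenhouse held 25–30 °C.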

crabgrass [15] = test: Test Example 4: weedkilling efficacy by foliar treatment; D: crabgrass
Method in brief: as §1

barnyard grass [16] = test: Test Example 2: weedkilling efficacy, growth period weed treatment in the submerged state; A: barnyard grass
Method in brief: as §3

black-grass [17] = test: Test Example 3: weedkilling efficacy through soil treatment; H: black-grass
Method in brief: as §2

Indian mallow [18] = test: Test Example 4: weedkilling efficacy by foliar treatment; K: Indian mallow
Method in brief: as §1

wild oat [19] = test: Test Example 4: weedkilling efficacy by foliar treatment; G: wild oat
Method in brief: as §1

barnyard grass [20] = test: Test Example 1: weedkilling efficacy, preemergent weed treatment in the submerged state; A: barnyard grass
Method in brief: as §4

wheat [21] = test: Test Example 4: foliar treatment, effect on crop; e: wheat
Method in brief: as §1

common wind-grass [22] = test: Test Example 3: weedkilling efficacy through soil treatment; J: common wind-grass
Method in brief: as §2

redroot pigweed [23] = test: Test Example 4: weedkilling efficacy by foliar treatment; L: redroot pigweed
Method in brief: as §1

wheat [24] = test: Test Example 3: soil treatment, effect on crop; e: wheat
Method in brief: as §2

corn [25] = test: Test Example 3: soil treatment, effect on crop; c: corn
Method in brief: as §2

chickweed [26] = test: Test Example 3: weedkilling efficacy through soil treatment; N: chickweed
Method in brief: as §2

Indian mallow [27] = test: Test Example 3: weedkilling efficacy through soil treatment; K: Indian mallow
Method in brief: as §2

crabgrass [28] = test: Test Example 3: weedkilling efficacy through soil treatment; D: crabgrass
Method in brief: as §2

bulrush [29] = test: Test Example 1: weedkilling efficacy, preemergent weed treatment in the submerged state; B: bulrush
Method in brief: as §4

redroot pigweed [30] = test: Test Example 3: weedkilling efficacy through soil treatment; L: redroot pigweed
Method in brief: as §2

barnyard grass [31] = test: Test Example 3: weedkilling efficacy through soil treatment; F: barnyard grass
Method in brief: as §2

fig-leafed goosefoot [32] = test: Test Example 4: weedkilling efficacy by foliar treatment; M: fig-leafed goosefoot
Method in brief: as §1

bulrush [33] = test: Test Example 2: weedkilling efficacy, growth period weed treatment in the submerged state; B: bulrush
Method in brief: as §3

corn [34] = test: Test Example 4: foliar treatment, effect on crop; c: corn
Method in brief: as §1

transplanted rice = test: Test Example 1: preemergent weed treatment in the submerged state, effect on crop; a: transplanted rice
Method in brief: as §4

barnyard grass [35] = test: Test Example 4: weedkilling efficacy by foliar treatment; F: barnyard grass
Method in brief: as §1

Italian ryegrass [36] = test: Test Example 3: weedkilling efficacy through soil treatment; I: Italian ryegrass
Method in brief: as §2

chickweed [37] = test: Test Example 4: weedkilling efficacy by foliar treatment; N: chickweed
Method in brief: as §1

fig-leafed goosefoot [38] = test: Test Example 3: weedkilling efficacy through soil treatment; M: fig-leafed goosefoot
Method in brief: as §2

birds-eye speedwell = test: Test Example 4: weedkilling efficacy by foliar treatment; p: birds-eye speedwell
Method in brief: as §1

Italian ryegrass [39] = test: Test Example 4: weedkilling efficacy by foliar treatment; I: Italian ryegrass
Method in brief: as §1

beet [40] = test: Test Example 4: foliar treatment, effect on crop; f: beet
Method in brief: as §1

Structure (SMILES): CC1=C(c2cccnc2F)C(=O)N(C(C)(C)C(=O)Nc2cc(C(F)(F)F)cc(F)n2)CO1 [B-2-13]
- H (black-grass) weedkilling efficacy grade (black-grass [1]): 5 (weed kill ratio 90% or more, (practically complete withering))
- b (directly sown rice) effect on crop grade (directly sown rice [2]): 5 (weed kill ratio 90% or more, (practically complete withering))
- J (common wind-grass) weedkilling efficacy grade (common wind-grass [3]): 5 (weed kill ratio 90% or more, (practically complete withering))
- d (soybean) effect on crop grade (soybean [4]): 0 (weed kill ratio 5% or less (practically no effect))
- O (catchweed) weedkilling efficacy grade (catchweed): 5 (weed kill ratio 90% or more, (practically complete withering))
- d (soybean) effect on crop grade (soybean [5]): 4 (weed kill ratio 70% or more, less than 90%)
- G (wild oat) weedkilling efficacy grade (wild oat [6]): 5 (weed kill ratio 90% or more, (practically complete withering))
- g (rapeseed) effect on crop grade (rapeseed [7]): 4 (weed kill ratio 70% or more, less than 90%)
- E (green foxtail) weedkilling efficacy grade (green foxtail [8]): 5 (weed kill ratio 90% or more, (practically complete withering))
- b (directly sown rice) effect on crop grade (directly sown rice [9]): 3 (weed kill ratio 40% or more, less than 70%)
- C (oval-leafed pondweed) weedkilling efficacy grade (oval-leafed pondweed [10]): 5 (weed kill ratio 90% or more, (practically complete withering))
- g (rapeseed) effect on crop grade (rapeseed [11]): 4 (weed kill ratio 70% or more, less than 90%)
- E (green foxtail) weedkilling efficacy grade (green foxtail [12]): 5 (weed kill ratio 90% or more, (practically complete withering))
- f (beet) effect on crop grade (beet [13]): 4 (weed kill ratio 70% or more, less than 90%)
- C (oval-leafed pondweed) weedkilling efficacy grade (oval-leafed pondweed [14]): 5 (weed kill ratio 90% or more, (practically complete withering))
- D (crabgrass) weedkilling efficacy grade (crabgrass [15]): 5 (weed kill ratio 90% or more, (practically complete withering))
- A (barnyard grass) weedkilling efficacy grade (barnyard grass [16]): 5 (weed kill ratio 90% or more, (practically complete withering))
- H (black-grass) weedkilling efficacy grade (black-grass [17]): 5 (weed kill ratio 90% or more, (practically complete withering))
- K (Indian mallow) weedkilling efficacy grade (Indian mallow [18]): 5 (weed kill ratio 90% or more, (practically complete withering))
- G (wild oat) weedkilling efficacy grade (wild oat [19]): 3 (weed kill ratio 40% or more, less than 70%)
- A (barnyard grass) weedkilling efficacy grade (barnyard grass [20]): 5 (weed kill ratio 90% or more, (practically complete withering))
- e (wheat) effect on crop grade (wheat [21]): 0 (weed kill ratio 5% or less (practically no effect))
- J (common wind-grass) weedkilling efficacy grade (common wind-grass [22]): 5 (weed kill ratio 90% or more, (practically complete withering))
- L (redroot pigweed) weedkilling efficacy grade (redroot pigweed [23]): 4 (weed kill ratio 70% or more, less than 90%)
- e (wheat) effect on crop grade (wheat [24]): 0 (weed kill ratio 5% or less (practically no effect))
- c (corn) effect on crop grade (corn [25]): 1 (weed kill ratio 5% or more, less than 20%)
- N (chickweed) weedkilling efficacy grade (chickweed [26]): 3 (weed kill ratio 40% or more, less than 70%)
- K (Indian mallow) weedkilling efficacy grade (Indian mallow [27]): 0 (weed kill ratio 5% or less (practically no effect))
- D (crabgrass) weedkilling efficacy grade (crabgrass [28]): 5 (weed kill ratio 90% or more, (practically complete withering))
- B (bulrush) weedkilling efficacy grade (bulrush [29]): 5 (weed kill ratio 90% or more, (practically complete withering))
- L (redroot pigweed) weedkilling efficacy grade (redroot pigweed [30]): 4 (weed kill ratio 70% or more, less than 90%)
- F (barnyard grass) weedkilling efficacy grade (barnyard grass [31]): 5 (weed kill ratio 90% or more, (practically complete withering))
- M (fig-leafed goosefoot) weedkilling efficacy grade (fig-leafed goosefoot [32]): 4 (weed kill ratio 70% or more, less than 90%)
- B (bulrush) weedkilling efficacy grade (bulrush [33]): 5 (weed kill ratio 90% or more, (practically complete withering))
- c (corn) effect on crop grade (corn [34]): 4 (weed kill ratio 70% or more, less than 90%)
- a (transplanted rice) effect on crop grade (transplanted rice): 1 (weed kill ratio 5% or more, less than 20%)
- F (barnyard grass) weedkilling efficacy grade (barnyard grass [35]): 5 (weed kill ratio 90% or more, (practically complete withering))
- I (Italian ryegrass) weedkilling efficacy grade (Italian ryegrass [36]): 5 (weed kill ratio 90% or more, (practically complete withering))
- N (chickweed) weedkilling efficacy grade (chickweed [37]): 4 (weed kill ratio 70% or more, less than 90%)
- M (fig-leafed goosefoot) weedkilling efficacy grade (fig-leafed goosefoot [38]): 3 (weed kill ratio 40% or more, less than 70%)
- P (birds-eye speedwell) weedkilling efficacy grade (birds-eye speedwell): 5 (weed kill ratio 90% or more, (practically complete withering))
- I (Italian ryegrass) weedkilling efficacy grade (Italian ryegrass [39]): 5 (weed kill ratio 90% or more, (practically complete withering))
- f (beet) effect on crop grade (beet [40]): 4 (weed kill ratio 70% or more, less than 90%)
